Columns and labels:
[1] = tested on: reserpine repeated administration-induced skin pain sensation threshold value reduction; test: Effects of drugs on reserpine repeated administration-induced reduction of skin pain sensation threshold value; format: in vivo, rat; settings: male rats, pregabalin, diclofenac oral, pramipexole subcutaneous; for effect on reserpine repeated administration-induced skin pain sensation threshold value reduction: 5 days after final reserpine (1 mg/kg s.c. x 3 days), 30-240 min after drug, duloxetine; for dose at which the effect was statistically significant by the index of skin pain sensation threshold value: 5 days after final reserpine, two-way analysis of variance and Bonferroni
[2] = tested on: reserpine repeated administration-induced muscle pressure pain threshold value reduction; test: Effects of drugs on reserpine repeated administration-induced reduction of muscle pressure pain threshold value; format: in vivo, rat; settings: for effect on reserpine repeated administration-induced muscle pressure pain threshold value reduction / dose at which the effect was statistically significant by the index of muscle pressure pain threshold value: male rats, pregabalin, duloxetine, diclofenac oral, pramipexole subcutaneous; for effect on reserpine repeated administration-induced muscle pressure pain threshold value reduction: 5 days after final reserpine (1 mg/kg s.c. x 3 days), 30-240 min after drug; for dose at which the effect was statistically significant by the index of muscle pressure pain threshold value: 5 days after final reserpine, two-way analysis of variance and Bonferroni; for efficacy on this disease animal model (reserpine-treated mammal): summary statement, chronic muscle pain and tactile allodynia model
Experimental: Male Sprague-Dawley rats (Japan SLC, Hamamatsu, Japan) were used as the animal. A total of 30 rats were used for each drug. As shown in Example 1, 1 mg/kg of reserpine was repeatedly administered subcutaneously on the back of 24 rats once a day for 3 days to induce reduction of the muscle pressure pain threshold value and skin pain sensation threshold value. The other 6 rats were subjected to the test as a healthy control group without carrying out the reserpine treatment.
All of the evaluations of drug effects were carried out 5 days after the final administration of reserpine.
On the day of drug effect evaluation (5 days after the final administration of reserpine), the muscle pressure pain threshold value and skin pain sensation threshold value were firstly measured on all of the rats (24 reserpine-treated rats and 6 healthy rats). The 24 reserpine-treated rats were divided into 4 groups based on the doses of the test drug, and the muscle pressure pain threshold value and skin pain sensation threshold value were measured after 30, 60, 120 or 240 minutes of the drug or solvent administration. On the 6 healthy rats, the drug administration was not carried out, but only the measurement of muscle pressure pain threshold value and skin pain sensation threshold value was carried out.
All of the measured values were expressed as average value±standard error. Statistical significance test of the measured values between the test drug administration groups and the solvent administration group at each point of time was carried out by a two-way analysis of variance and the Bonferroni method. Probability value (P) of less than 5% was judged as statistically significant (P<0.05 was expressed as * in the graphs).

[3] = tested on: fibromyalgia patients; settings: cited from earlier work; for pain symptom score of fibromyalgia patients in comparison with the placebo group: Non-patent References 7 to 9; for effect in the treatment of fibromyalgia patients (clinical trial): literature clinical trials

Q: Which “effect on reserpine repeated administration-induced skin pain sensation threshold value reduction” value [1] does the source give for O=C(O)Cc1ccccc1Nc1c(Cl)cccc1Cl [diclofenac] here?
A: did not recover

Q: And the “dose at which the effect was statistically significant by the index of skin pain sensation threshold value” [1]?
A: > 10 mg/kg

Q: What about the “effect on reserpine repeated administration-induced muscle pressure pain threshold value reduction” value [2] of the same compound?
A: did not recover

Q: And the “dose at which the effect was statistically significant by the index of muscle pressure pain threshold value” [2]?
A: > 10 mg/kg

Q: What about the “efficacy on this disease animal model (reserpine-treated mammal)” value [2] of the same compound?
A: not effective

Q: What does the source list for CNCC[C@H](Oc1cccc2ccccc12)c1cccs1 [duloxetine]?
A: pain symptom score of fibromyalgia patients in comparison with the placebo group [3]: alleviates the pain symptom score of fibromyalgia patients statistically significantly; effect in the treatment of fibromyalgia patients (clinical trial) [3]: usefulness has been proved; effect on reserpine repeated administration-induced skin pain sensation threshold value reduction [1]: showed a tendency to recover the reserpine repeated administration-induced skin pain sensation pain threshold value reduction but was not statistically significant; effect on reserpine repeated administration-induced muscle pressure pain threshold value reduction [2]: statistically significantly recovered; dose at which the effect was statistically significant by the index of muscle pressure pain threshold value [2]: 30 mg/kg; efficacy on this disease animal model (reserpine-treated mammal) [2]: effective

Q: Which “effect in the treatment of fibromyalgia patients (clinical trial)” value [3] does the source give for CC(C)Cc1ccc(C(C)C(=O)O)cc1 (stereo not shown) [ibuprofen] here?
A: do not have a significant effect

Q: For COc1ccc2cc([C@H](C)C(=O)O)ccc2c1 [naproxen], which “effect in the treatment of fibromyalgia patients (clinical trial)” value [3] is on record?
A: do not have a significant effect

Q: What does the source list for CC(C)C[C@H](CN)CC(=O)O [pregabalin]?
A: pain symptom score of fibromyalgia patients in comparison with the placebo group [3]: alleviates the pain symptom score of fibromyalgia patients statistically significantly; effect in the treatment of fibromyalgia patients (clinical trial) [3]: usefulness has been proved; effect on reserpine repeated administration-induced skin pain sensation threshold value reduction [1]: dose-dependently recovered; dose at which the effect was statistically significant by the index of skin pain sensation threshold value [1]: 30 mg/kg; effect on reserpine repeated administration-induced muscle pressure pain threshold value reduction [2]: dose-dependently recovered; efficacy on this disease animal model (reserpine-treated mammal) [2]: effective
